Legend:
[1] = system: Mus musculus; assay: Minimum effective dose tested by ip administration for its ability to block NMDA induced lethality in mice.; format: functional; settings: read-out: MED
[2] = system: Glutamate [NMDA] receptor; assay: Tested in vitro for the affinity against NMDA receptor in a cortical wedge assay; A- Compound acted as […]; format: functional
[3] = target: Glutamate [NMDA] receptor; assay: Tested in vitro for the affinity against NMDA receptor by examining its ability to inhibit [3H]-CGS-19,755 binding; format: protein-complex assay
[4] = target: Glutamate [NMDA] receptor; assay: Tested in vitro for the affinity against NMDA receptor in a cortical wedge assay; format: protein-complex assay
[5] = system: Glutamate [NMDA] receptor; assay: Tested in vitro for the affinity against NMDA receptor in a cortical wedge assay; A- compound acts as antagonist; format: functional

SMILES	minimal effective dose [1] [mg/kg]	IC50 [2]	IC50 [3] [nM]	IC50 [4] [nM]	IC50 [5]
N[C@@H](CCc1nnn[nH]1)C(=O)O	> 160	Agonist	1600	–	–
O=C(O)C1CN(CCCc2nnn[nH]2)CCN1 (centres undefined)	40	–	3150	16300	–
O=C(O)C1CN(Cc2nn[nH]n2)CCN1 (centres undefined)	> 80	–	1670	8200	–
O=C(O)C1CN(CCc2nnn[nH]2)CCN1 (centres undefined)	160	–	781	4700	–
N[C@H](Cc1nnn[nH]1)C(=O)O	> 160	–	685	> 100000	–
N[C@H](CCc1nnn[nH]1)C(=O)O	> 160	–	925	31600	–
O=C(O)[C@H]1C[C@@H](Cc2nnn[nH]2)CCN1	5	–	107	4200	–
O=C(O)C1CN(CCCP(=O)(O)O)CCN1 (centres undefined)	2.5	–	220	600	–
N[C@H](CCCCCP(=O)(O)O)C(=O)O	160	–	461	11100	–
O=C(O)C1CN(CCCCc2nnn[nH]2)CCN1 (centres undefined)	> 80	–	> 10000	–	–
N[C@@H](Cc1nnn[nH]1)C(=O)O	> 160	–	639	> 100000	–
NC(CCCCCc1nnn[nH]1)C(=O)O (centres undefined)	> 160	–	> 10000	> 100000	–
Cl.NC(CCCc1nnn[nH]1)C(=O)O (centres undefined)	> 160	–	1050	–	Antagonist
Cl.NC(CCCCc1nnn[nH]1)C(=O)O (centres undefined)	> 160	–	10000	–	Antagonist
Cl.NC(CCCCCCc1nnn[nH]1)C(=O)O (centres undefined)	> 160	–	> 10000	> 100000	–
N[C@H](CCCP(=O)(O)O)C(=O)O	160	–	177	3700	–
O=C(O)[C@@H]1C[C@H](CP(=O)(O)O)CCN1 (single isomer, unassigned) [SELFOTEL]	–	–	54	1600	–

Reference: ChEMBL document CHEMBL1127097, “Tetrazole amino acids as competitive NMDA antagonists” (Bioorg Med Chem Lett, 1993)
